Measured values: patent US8580799B2 (priority 2008, dated 2013)
Read-outs that look alike come from different tables or passages of the source.

Assay: Measurement of logP values by HPLC on reversed phase columns (EEC directive 79/831 Annex V.A8)
Type: physicochemical
Settings: for chromatographic logP: reversed phase HPLC column
[1] = HCOOH (formic acid) method, read-out: log P(HCOOH)
[2] = method [b]: LC-MS at pH 2.7 with 0.1% formic acid in water and acetonitrile, linear gradient 10% to 95% acetonitrile, read-out: logp
[3] = method [b]: LC-MS at pH 2.7 with 0.1% formic acid in water and acetonitrile, linear gradient 10% to 95% acetonitrile
[4] = method [a]: pH 2.3 with 0.1% phosphoric acid and acetonitrile as eluent

Row | SMILES | chromatographic logP [1] | logp [4] | also measured
1 | CCCCCCN(C(=O)OC(C)(C)C)c1cccc(CON2C(=O)c3ccccc3C2=O)n1 | 5.48 |  | 
2 | CCCCCCN(C(=O)OC(C)(C)C)c1cccc(CON)n1 | 3.42 |  | 
3 | Nc1nc(CON2C(=O)c3ccccc3C2=O)cs1 [2-[(2-amino-1,3-thiazol-4-yl)methoxy]-1H-isoindole-1,3(2H)-dione] | 0.74 |  | 
4 | O=C1c2ccccc2C(=O)N1OCc1csc(Br)n1 [2-[(2-bromo-1,3-thiazol-4-yl)methoxy]-1H-isoindole-1,3(2H)-dione] | 2.39 |  | 
5 | Cc1nsnc1/C(=N\OCc1cccc(N2C(=O)c3ccccc3C2=O)n1)c1ccccc1 [2-{6-[({[(Z)-(4-methyl-1,2,5-thiadiazol-3-yl)(phenyl)methylene]amino}-oxy)methyl]pyridin-2-yl}-1H-isoindole-1,3(2H)-dione] | 3.99 |  | 
6 | CCCCC#Cc1nc(CON2C(=O)c3ccccc3C2=O)cs1 [2-{[2-(hex-1-yn-1-yl)-1,3-thiazol-4-yl]methoxy}-1H-isoindole-1,3(2H)-dione] | 3.78 |  | 
7 | CCCCC#Cc1nc(CON)cs1 [4-[(aminooxy)methyl]-2-(hex-1-yn-1-yl)-1,3-thiazole] | 1.76 |  | 
8 | Cc1nsnc1/C(=N\OCc1cccc(N)n1)c1ccccc1 [6-[({[(Z)-(4-methyl-1,2,5-thiadiazol-3-yl)(phenyl)methylene]amino}oxy)-methyl]pyridin-2-amine] | 1.54 |  | 
9 | CCCCCCNc1cccc(CON=C(c2cccc(F)c2)c2nnsc2C)n1 [Example 1, 6-[({[(3-fluorophenyl)(5-methyl-1,2,3-thiadiazol-4-yl)methylene]amino}oxy)methyl]-N-hexylpyridin-2-amine] | 3.06 |  | chromatographic logP [2]: 3.06
10 | CCCCC#Cc1nc(CON=C(c2ccc(Cl)cc2)c2nnsc2C)cs1 [Example 4] |  |  | logp [3]: 5.68^[b]
11 | CCCCC#Cc1nc(CON=C(c2ccc(F)cc2)c2nnsc2C)cs1 [Example 5] |  |  | logp [3]: 5.19^[b]
12 | CCCCC#Cc1nc(CON=C(c2cccc(Cl)c2)c2nnsc2C)cs1 [Example 6, 1-(3-chlorophenyl)-N-([2-(hex-1-yn-1-yl)-1,3-thiazol-4-yl]methoxy)-1-(5-methyl-1,2,3-thiadiazol-4-yl)methanimine] | 5.68 |  | chromatographic logP [2]: 5.68
13 | CCCCC#Cc1nc(CON=C(c2cccc(F)c2)c2nnsc2C)cs1 [Example 7] |  |  | logp [3]: 5.25^[b]
14 | Nc1ccnc(CON=C(c2ccccc2)c2nsnc2C(F)(F)F)n1 [Example 8] |  | 1.75^[a] | 
15 | CCCCCOC(=O)Nc1ccnc(CON=C(c2ccccc2)c2nsnc2C(F)(F)F)n1 [Example 9] |  | 4.92^[a] | 
16 | Nc1nc(CON=C(c2ccccc2)c2nsnc2C(F)(F)F)cs1 [Example 10] |  | 2.26^[a] | 
17 | O=C(Nc1ccnc(CON=C(c2ccccc2)c2nsnc2C(F)(F)F)n1)c1ccccc1 [Example 11] |  | 4.14^[a] | 
18 | O=C(CCCc1ccccc1)Nc1ccnc(CON=C(c2ccccc2)c2nsnc2C(F)(F)F)n1 [Example 12] |  | 4.65^[a] | 
19 | COCCOCC(=O)Nc1ccnc(CON=C(c2ccccc2)c2nsnc2C(F)(F)F)n1 [Example 13] |  | 3.46^[a] | 
20 | CC(C)CC(=O)Nc1ccnc(CON=C(c2ccccc2)c2nsnc2C(F)(F)F)n1 [Example 14] |  | 4.09^[a] | 
21 | O=C(Cc1ccccc1)Nc1ccnc(CON=C(c2ccccc2)c2nsnc2C(F)(F)F)n1 [Example 15] |  | 4.09^[a] | 
22 | CC(C)(C)C(=O)Nc1ccnc(CON=C(c2ccccc2)c2nsnc2C(F)(F)F)n1 [Example 16] |  | 4.24^[a] | 
23 | CCCCCC(=O)Nc1ccnc(CON=C(c2ccccc2)c2nsnc2C(F)(F)F)n1 [Example 17] |  | 4.54^[a] | 
24 | O=C1c2ccccc2C(=O)N1c1cccc(CON=C(c2ccccc2)c2nsnc2C(F)(F)F)n1 [Example 18] |  | 4.31^[a] | 
25 | CCCCCOC(=O)Nc1cccc(CON=C(c2ccccc2)c2nsnc2C(F)(F)F)n1 [Example 19] |  | 5.68^[a] | 
26 | CCCCCOC(=O)Nc1cccc(CON=C(c2ccccc2)c2nsnc2C)n1 [Example 20] |  |  | logp [3]: 5.5^[b]
